Laboratory results taken from patent US11911477B2, “Use of fructose in preparing drug for treating ischemic injury” (Beihang University, priority 2021, dated 2024).

Tests used:
[1] = tested on: DIV7 neurons; experiment: IPC with fructose pathway inhibitor sorbinil: ATP and NADPH level of DIV7 neurons; type: cell-based, mice; conditions: fructose pathway inhibited by sorbinil, cellular level
Description: Secondly, to further verify effects of the fructose pathway in IPC ischemia protection, a fructose pathway inhibitor sorbinil was added at the cellular level. […] (4) Content of ATP and NADPH: cortical neurons were isolated from P0-P1 suckling mice, the neurons were inoculated on a 7th day by adding a lentiviral transfection protein vector that specifically detects ATP and a lentiviral transfection protein vector iNap that specifically detects NADPH; the neurons were fixated with 4% PFA, subjected to immunofluorescence staining, and data was collected through a confocal microscope, the fluorescence intensity of virus vector protein was counted using ImageJ, and the contents of ATP and NADPH were calculated.

[2] = tested on: DIV7 neurons; experiment: CellTiter-Glo Luminescent cell viability of DIV7 neurons; type: cell-based; conditions: for viability of DIV7 neurons: 0, 1, 2, 4, 6, 8 and 16 mM, each compared with the 0 mM group, FIG. 12
Excerpt: Effects of different concentrations of fructose on the viability of DIV7 neurons were studied using a CellTiter-Glo® Luminescent cell viability test kit, and an added concentration of the fructose was explored in the cell system.

[3] = tested on: OGD-injured neurons; experiment: CellTiter-Glo Luminescent cell viability of OGD-injured neurons; conditions: OGD 1.5 h, 2 mM, after 24 h, FIG. 13
Description: The CellTiter-Glo® Luminescent cell viability test kit was used: the neuronal cells were cultured using a 96-well plate, and OGD treatment was conducted on neurons for 1.5 h on a 7th day; fructose, fructose-1,6-bisphosphate and glycerol fructose were added each at a concentration of 2 mM; after 24 h, the cell viability was detected by the kit.

[4] = tested on: OGD-injured neurons; experiment: Survival rate of OGD-treated neurons by MAP2 and DAPI immunofluorescence staining; conditions: OGD 1.5 h, 2 mM, after 24 h, FIG. 14
Description: Immunofluorescence staining method: the neurons were cultured for 7 d, and subjected to OGD treatment for 1.5 h; fructose, fructose-1,6-bisphosphate and glycerol fructose were added each at a concentration of 2 mM; after 24 h, MAP2 and DAPI staining were conducted.

[5] = tested on: OGD-injured neurons; experiment: Survival of OGD-injured neurons (TUNEL and MAP2 staining), fructose at different stages; type: cell-based; conditions: 24 h reperfusion
Description: (1) Cell model: the cerebral ischemic stroke was simulated using an OGD model, DIV7 primary neurons were treated with a glucose-free medium in a hypoxic box (1% O2+5% CO2+94% N2), oxygen glucose deprivation was conducted at 37° C. for 1.5 h, and the primary neurons was cultured in a normal medium for 24 h under normoxic conditions. (3) Survival of neurons: a survival state of neurons was counted by TUNEL staining and immunofluorescence staining; the neuronal cells were subjected to growing on glass coverslips, fixated with 4% PFA for 10 min, washed with PBS, and subjected to incubation in a blocking buffer for 1 h, and a MAP2 primary antibody working solution was added to conduct culture overnight at 4° C.; the cells were washed with PBS, a MAP2 secondary antibody working solution was added to incubate at room temperature for 1 h; the cells were washed with PBS, subjected to TUNEL staining, and a mounting agent containing 4′,6-diamidino-2-phenylindole (DAPI) was added for mounting. Data was collected through a focusing microscope and the number of cell deaths was counted using ImageJ. (1) Neuron survival: DIV7 neurons were divided into four groups: a control group, an OGD group (for OGD treatment), an OGD+Fru(per) group (fructose treatment during OGD treatment), and an OGD+Fru(post) group (fructose treatment in a reperfusion stage after OGD treatment). […]

[6] = tested on: OGD-injured neurons; experiment: ATP and NADPH content of OGD-injured neurons (lentiviral sensors), fructose at different stages; type: cell-based, mice
Excerpt: (4) Content of ATP and NADPH: cortical neurons were isolated from P0-P1 suckling mice, the neurons were inoculated on a 7th day by adding a lentiviral transfection protein vector that specifically detects ATP and a lentiviral transfection protein vector iNap that specifically detects NADPH; the neurons were fixated with 4% PFA, subjected to immunofluorescence staining, and data was collected through a confocal microscope, the fluorescence intensity of virus vector protein was counted using ImageJ, and the contents of ATP and NADPH were calculated. By detecting an expression level of the lentiviral transfection protein vector that specifically detects ATP and the lentiviral transfection protein vector iNap that specifically detects NADPH in the primary neuron culture system, the levels are characterized for neuronal energy metabolism and redox metabolism. (2) Content of ATP and NADPH: cortical neurons were isolated from P0-P1 suckling mice, the neurons were inoculated on a 7th day by adding a lentiviral transfection protein vector that specifically detects ATP and a lentiviral transfection protein vector iNap that specifically detects NADPH; the neurons were divided into four groups: a control group, an OGD group (for OGD treatment), an OGD+Fru(per) group (fructose treatment during OGD treatment), and an OGD+Fru(post) group (fructose treatment in a reperfusion stage after OGD treatment). Reperfusion was conducted 24 h after OGD; the neurons were fixated with 4% PFA, subjected to MAP2 immunofluorescence staining to observe the content of ATP and NADPH of the neurons.

[7] = tested on: MCAO rats; experiment: MCAO rat model: Longa behavioral score and TTC cerebral infarct area; type: in vivo; conditions: for area of cerebral infarction (TTC staining) / neurobehavioral characteristics (Longa scoring): 24 h
[8] = fructose added in the OGD phase
[9] = fructose added in the reperfusion phase
[10] = intraperitoneal injection after suture plug removal (MCAO+Fru-2)
[11] = tail vein injection after suture plug removal (MCAO+Fru-1)

| SMILES | content of ATP after IPC ([1]; FIGS. 4A-B) | content of NADPH after IPC ([1]; FIGS. 5A-B) | viability of DIV7 neurons [2] | cell viability of OGD-injured neurons [3] | survival rate of neurons after OGD [4] | neuronal death rate caused by OGD ([5]; fructose added in the OGD phase (OGD+Fru(per))) | neuronal death rate caused by OGD ([5]; fructose added in the reperfusion phase (OGD+Fru(post))) | ATP production of neurons [6, 8] | NADPH production of neurons [6, 8] | ATP production of neurons [6, 9] | NADPH production of neurons [6, 9] | comparison of routes of administration (tail vein vs intraperitoneal) ([7]; MCAO rats, neurobehavior and infarct area) | area of cerebral infarction (TTC staining) [7, 10] | neurobehavioral characteristics (Longa scoring) [7, 10] | area of cerebral infarction (TTC staining) [7, 11] | neurobehavioral characteristics (Longa scoring) [7, 11] | concentration with better effect of improving the activity of DIV7 neuronal cells ([2]; different concentrations of fructose, FIG. 11) [mM] |
| --- | --- | --- | --- | --- | --- | --- | --- | --- | --- | --- | --- | --- | --- | --- | --- | --- | --- |
| O=C1NC(=O)[C@@]2(CCOc3ccc(F)cc32)N1 [sorbinil] | the IPC no longer increases the contents of ATP and NADPH | the IPC no longer increases the contents of ATP and NADPH | – | – | – | – | – | – | – | – | – | – | – | – | – | – | – |
| O=C(COP(=O)(O)O)[C@@H](O)[C@H](O)[C@H](O)COP(=O)(O)O [reference compound] | – | – | can improve neuron viability | have a tendency to increase the viability of OGD-injured neurons | can improve the survival rate of the neurons | – | – | – | – | – | – | – | – | – | – | – | – |
| O=C(CO)[C@@H](O)[C@H](O)[C@H](O)CO [fructose] | – | – | can significantly enhance viability of the neurons | can significantly increase the cell viability of OGD-injured neurons | – | can reduce the neuronal death rate caused by OGD | can reduce the neuronal death rate caused by OGD | can enhance the decrease in ATP and NADPH production of neurons caused by OGD | can enhance the decrease in ATP and NADPH production of neurons caused by OGD | can enhance the decrease in ATP and NADPH production of neurons caused by OGD | can enhance the decrease in ATP and NADPH production of neurons caused by OGD | tail vein injection is generally better than the intraperitoneal injection | reduce the area of cerebral infarction | can improve the neurobehavioral characteristics of MCAO rats | reduce the area of cerebral infarction | can improve the neurobehavioral characteristics of MCAO rats | 1 to 6 |
